Literature values, collected in US20100190757A1, “COMBINATION PREPARATION FOR ORAL CONTREACEPTION AND ORAL THERAPY OF DYSFUNCTIONAL UTERINE BLEEDING CONTAINING ESTRADIOL VALERATE AND DIENOGEST AND METHOD OF USING SAME” (priority 2005, published 2010).

Test system: dysfunctional uterine bleeding
Details: for duration of the bleeding period: 6 anovulatory women (14 days, 12th to 25th day of cycle) and ten ovulatory women (20 days, 5th to 25th day), three times daily, both groups; for reliable contraception: same regimen, anovulatory and ovulatory women

CC(=O)O[C@]1(C(C)=O)CC[C@H]2[C@@H]3C[C@H](C)C4=CC(=O)CC[C@]4(C)[C@H]3CC[C@@]21C [medroxyprogesterone acetate]
duration of the bleeding period: reduced
reliable contraception: not attained

C#C[C@]1(O)CC[C@H]2[C@@H]3CCC4=CC(=O)CC[C@@H]4[C@H]3CC[C@@]21C [norethisterone]
duration of the bleeding period: reduced
reliable contraception: not attained
